Laboratory results reported in patent publication US11078194B2, “Salt form and crystal form serving as FGFR and VEGFR inhibitor compounds, and preparation method therefor” (HARBIN ZHENBAO PHARMACEUTICAL CO., LTD., priority 2017, dated 2021).

Experiments:
[1] = Solid stability test of crystal form G, crystal form I and crystal form J (HPLC content, total impurities, XRPD, appearance); type: physicochemical; conditions: for thermal stability and stability under accelerated conditions: conclusion of influencing factors and accelerated tests
Protocol: About 10 mg of crystal form G, crystal form I, or crystal form J were weighed accurately, and placed on the bottom of a 40 mL glass sample bottle and spread into a thin layer. For an open sample, the bottle mouth thereof was sealed with aluminum foil poked with pinholes to ensure that the sample can fully contact with the ambient air. For a sealed sample, the bottle mouth thereof was sealed with a bottle cap, and wrapped with a sealing film. Two duplicate samples were weighed at each time point of each condition in parallel, and an appropriate amount of sample (not weighed) was taken additionally for XRPD detection. The prepared samples were placed under each condition and were sampled and analyzed when the time point was arrived. On 0th day, 5 control samples were weighed in parallel and stored in a refrigerator at −20° C. until analysis. The samples subjected to light irradiation were prepared by the same method, and placed on the bottom of a 40 mL glass sample bottle. The glass bottle was left open and placed in the upright position in a light irradiation box. In addition, two samples in an appropriate amount were taken as samples in dark, and the glass bottles containing the same were left open, put in the upright position, and wrapped with tin foil, and irradiated with a total luminance of 1.2×10^6Lux.hr and a near ultraviolet power of 200 w.hr/m^2. After irradiation, the samples was stored in the refrigerator at −20° C. for analysis.
The compounds were placed under the following conditions and sampled at different time points to detect the physical properties, and the content and total impurities were analyzed by HPLC.

[2] = Hygroscopicity test by dynamic vapor sorption (DVS); type: physicochemical; conditions: 25±1° C. and 80±2% RH; for hygroscopicity evaluation: scales in the 11th table
Protocol: Instrument model: SMS DVS Advantage dynamic vapor sorption analyzer Detection conditions: samples (10 mg to 15 mg) were placed in a DVS sample tray for detection. The detailed DVS parameters are as follows: Temperature: 25° C. Balance: dm/dt=0.01%/min (shortest: 10 min, longest: 180 min) Drying: 120 minutes at 0% RH RH (%) gradient for testing: 10% RH (%) range for gradient testing: 0%-90%-0% The hygroscopicity was evaluated using the following scales: [table] 10 to 15 mg of the crystal form I of the compound of formula (III) was taken and placed in a DVS sample tray for testing. 10 to 15 mg of the crystal form J of the compound of formula (IV) was taken and placed in a DVS sample tray for testing.

[3] = Accelerated test (40° C./relative humidity 75%, open), 1st month
[4] = Accelerated test (40° C./relative humidity 75%, open), 2nd month
[5] = Accelerated test (40° C./relative humidity 75%, open), 3rd month
[6] = Accelerated test (40° C./relative humidity 75%, open), 10th day
[7] = Accelerated test (60° C./relative humidity 75%, open), 1st month
[8] = Accelerated test (60° C./relative humidity 75%, open), 2nd month
[9] = Accelerated test (60° C./relative humidity 75%, open), 3rd month
[10] = Accelerated test (60° C./relative humidity 75%, open), 10th day
[11] = High humidity (Room temperature/relative humidity 92.5%, open), 5th day
[12] = High humidity (Room temperature/relative humidity 92.5%, open), 10th day
[13] = High temperature (60° C., open), 5th day
[14] = High temperature (60° C., open), 10th day
[15] = Light irradiation (1.2 × 10^6 Lux·hr, near ultraviolet 200 w·hr/m^2, open), irradiated sample
[16] = Light irradiation test, Dark sample
[17] = Accelerated test (40 C./relative humidity 75%, open), 1st month
[18] = Accelerated test (40 C./relative humidity 75%, open), 2nd month
[19] = Accelerated test (40 C./relative humidity 75%, open), 3rd month
[20] = Accelerated test (40 C./relative humidity 75%, open), 10th day
[21] = Accelerated test (60 C./relative humidity 75%, open), 1st month
[22] = Accelerated test (60 C./relative humidity 75%, open), 2nd month
[23] = Accelerated test (60 C./relative humidity 75%, open), 3rd month
[24] = Accelerated test (60 C./relative humidity 75%, open), 10th day
[25] = Light irradiation (total illuminance 1.2 × 10^6 Lux·hr/near ultraviolet 200 w·hr/m^2, open), light irradiation sample

## C[C@@H](Oc1ccc2[nH]nc(/C=C(\F)c3ccc(CNC4CCOCC4)nc3)c2c1)c1c(Cl)cncc1Cl.O=C(O)CC(O)(CC(=O)O)C(=O)O [crystal form I]
[1]; 0th day
  Appearance: Earth yellow
  Content (%): 100.00%
  Crystal form (XRPD): form I
  Total impurities (%): 1.91%
[1]; [3]
  Appearance: Earth yellow
  Content (%): 99.83%
  Crystal form (XRPD): form I
  Total impurities (%): 1.88%
[1]; [4]
  Appearance: Earth yellow
  Content (%): 100.06%
  Crystal form (XRPD): form I
  Total impurities (%): 1.82%
[1]; [5]
  Appearance: Earth yellow
  Content (%): 99.32%
  Crystal form (XRPD): form I
  Total impurities (%): 1.86%
[1]; [6]
  Appearance: Earth yellow
  Content (%): 99.93%
  Crystal form (XRPD): form I
  Total impurities (%): 1.85%
[1]; [7]
  Appearance: Earth yellow
  Content (%): 99.95%
  Crystal form (XRPD): form I
  Total impurities (%): 1.74%
[1]; [8]
  Appearance: Earth yellow
  Content (%): 98.46%
  Crystal form (XRPD): form I
  Total impurities (%): 1.79%
[1]; [9]
  Appearance: Earth yellow
  Content (%): 97.31%
  Crystal form (XRPD): form I
  Total impurities (%): 1.83%
[1]; [10]
  Appearance: Earth yellow
  Content (%): 100.19%
  Crystal form (XRPD): form I
  Total impurities (%): 1.85%
[1]; [11]
  Appearance: Earth yellow
  Content (%): 99.10%
  Crystal form (XRPD): form I
  Total impurities (%): 1.88%
[1]; [12]
  Appearance: Earth yellow
  Content (%): 99.92%
  Crystal form (XRPD): form I
  Total impurities (%): 1.73%
[1]; [13]
  Appearance: Earth yellow
  Content (%): 100.40%
  Crystal form (XRPD): form I
  Total impurities (%): 1.93%
[1]; [14]
  Appearance: Earth yellow
  Content (%): 100.26%
  Crystal form (XRPD): form I
  Total impurities (%): 1.83%
[1]; [15]
  Appearance: Earth yellow
  Content (%): 97.37%
  Crystal form (XRPD): form I
  Total impurities (%): 2.35%
[1]; [16]
  Appearance: Earth yellow
  Content (%): 99.42%
  Crystal form (XRPD): form I
  Total impurities (%): 1.85%
[1]
  thermal stability and stability under accelerated conditions: excellent
  stability under dark conditions: good stability
  impurities generated under light irradiation conditions: slight impurities
[2]
  hygroscopic weight gain ΔW: 2.134%
  hygroscopicity evaluation: hygroscopic

## C[C@@H](Oc1ccc2[nH]nc(/C=C(\F)c3ccc(CNC4CCOCC4)nc3)c2c1)c1c(Cl)cncc1Cl.O=C(O)C[C@H](O)C(=O)O [crystal form J]
[1]; 0th day, control
  Appearance: Earth yellow
  Crystal form (XRPD): form J
[1]; 0th day, control, HPLC
  Content (%): 100.00%
  Total impurities (%): 1.42%
[1]; [17]
  Appearance: Earth yellow
  Content (%): 99.31%
  Crystal form (XRPD): form J
  Total impurities (%): 1.36%
[1]; [18]
  Appearance: Earth yellow
  Content (%): 99.40%
  Crystal form (XRPD): form J
  Total impurities (%): 1.20%
[1]; [19]
  Appearance: Earth yellow
  Content (%): 98.62%
  Crystal form (XRPD): form J
  Total impurities (%): 1.20%
[1]; [20]
  Appearance: Earth yellow
  Content (%): 99.44%
  Crystal form (XRPD): form J
  Total impurities (%): 1.33%
[1]; [21]
  Appearance: Earth yellow
  Content (%): 97.07%
  Crystal form (XRPD): form J
  Total impurities (%): 1.43%
[1]; [22]
  Appearance: Earth yellow
  Content (%): 97.22%
  Crystal form (XRPD): form J
  Total impurities (%): 1.48%
[1]; [23]
  Appearance: Earth yellow
  Content (%): 97.18%
  Crystal form (XRPD): form J
  Total impurities (%): 1.53%
[1]; [24]
  Appearance: Earth yellow
  Content (%): 99.05%
  Crystal form (XRPD): form J
  Total impurities (%): 1.36%
[1]; [11]
  Appearance: Earth yellow
  Content (%): 99.06%
  Crystal form (XRPD): form J
  Total impurities (%): 1.31%
[1]; [12]
  Appearance: Earth yellow
  Content (%): 100.58%
  Crystal form (XRPD): form J
  Total impurities (%): 1.32%
[1]; [13]
  Appearance: Earth yellow
  Content (%): 98.83%
  Crystal form (XRPD): form J
  Total impurities (%): 1.39%
[1]; [14]
  Appearance: Earth yellow
  Content (%): 99.11%
  Crystal form (XRPD): form J
  Total impurities (%): 1.46%
[1]; [25]
  Appearance: Earth yellow
  Content (%): 96.41%
  Crystal form (XRPD): form J
  Total impurities (%): 1.90%
[1]; [16]
  Appearance: Earth yellow
  Content (%): 98.04%
  Crystal form (XRPD): form J
  Total impurities (%): 1.30%
[1]
  thermal stability and stability under accelerated conditions: excellent
  stability under dark conditions: good stability
  impurities generated under light irradiation conditions: slight impurities
[2]
  hygroscopic weight gain ΔW: 5.227%
  hygroscopicity evaluation: hygroscopic
